PubChem BioAssay (NCI)
Where “and” joins values, the source holds several entries; their conditions need not be identical. Identical values can stand only once.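 Tested at 5 concentrations; 48 h exposure; 96-well plates; endpoints linearly interpolated, else capped at highest concentration. GI50 is the concentration that inhibits growth by half. TGI: total growth inhibition.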

Test system: SK-MEL-28 melanoma
Experiment: growth of human tumour cells (NCI), 48 h

Compound	TGI	GI50
NNC(=S)N/N=C(\CC1OC(=O)c2ccccc21)c1ccccc1O (stereo not given)	> 100 µM	–
COC(=O)C1=C(O)c2cc(OC)c(OC)cc2C(c2ccc(OC)c(OC)c2)C1 (stereo not given)	> 100 µM	–
COC1(OC)CC2C(=O)N(Cc3ccccc3)C1C(S(=O)(=O)c1ccccc1)C2S(=O)(=O)c1ccccc1 (stereo not given)	26.8 µM	–
NC(=Nc1c([N+](=O)[O-])cnc2ccccc12)N1CCOCC1	> 100 µM	–
CCN(CC)c1ccc2c(c1)OC(N)=C(C#N)C2c1cc(OC)c2c(c1)OCO2 (stereo not given)	22.7 µM	0.0345 µM
N#CC(=C1C=CC(=NO)C=C1)c1ccccc1	27.5 µM	8.71 µM
CCCCCCCCCCCCCC1=NC(C)(C)CN1C(C)C	3.11 µM	1.74 µM
COC(=O)C(=Cc1cc(OC)ccc1OC)C(=O)OC	82.9 µM	–
CC(C)c1ccccc1NC(=O)CCc1n[nH]c(=S)o1	> 100 µM	–
CC(C)=CCNc1ncnc2c1ncn2C1OC(CO)C(O)C1O (stereo not given)	> 1000 µM	> 346 µM
CCCCC(C(=O)C(=O)NC1C2CC3CC(C2)CC1C3)C(=O)C(C)C (stereo not given)	> 100 µM	–
COc1ccc(CN2C(=O)/C(=C\C(=O)c3ccc(OCCN4CCCCC4)cc3)c3ccccc32)cc1	4.02 µM	1.98 µM
COC(=O)c1cc2c(s1)C(=O)c1ccccc1-2	> 100 µM	–
CCC(C)n1ncn(-c2ccc(N3CCN(c4ccc(OCC5COC(Cn6cncn6)(c6ccc(Cl)cc6Cl)O5)cc4)CC3)cc2)c1=O (stereo not given)	> 100 µM	> 100 µM
CC(C)CCN1c2nc(Nc3cc(F)c(O)c(F)c3)ncc2N(C)C(=O)C1C (stereo not given)	> 95.8 µM	10.9 µM
NC(=O)NC1C(c2ccccc2)=C1c1ccccc1	33.3 µM	–

Test system: 786-0 renal
Experiment: growth of human tumour cells (NCI), 48 h

Compound	GI50	TGI
Cn1nc(N)c2cc([C@@H]3Nc4ccc5[nH]ncc5c4[C@H]4C5CCC(C5)[C@@H]34)ccc21 (stereo not given in full)	0.586 µM	18.1 µM
Cn1cc(CO)c2c1C(=O)C=C(N1CC1)C2=O	< 0.01 µM	0.108 µM
O=C(O)C1C2C=CC(O2)C1C(=O)NCc1ccccn1 (stereo not given)	–	> 100 µM
CC1=C(C(=O)Nc2ccccc2)C(c2ccccc2)C(C(=O)Nc2ccccc2)=C(C)N1	–	> 100 µM
O=C(OC(CNc1cc(=O)n(Cc2ccccc2)c(=O)n1Cc1ccccc1)CN1CCCC1)c1ccccc1 (stereo not given)	> 100 µM	> 100 µM
Cc1nn(-c2ccccc2)c2nc(N3CCOCC3)nnc12	–	> 100 µM
CCN(CC)CCCC(CNc1ccnc2cc(Cl)ccc12)c1ccc(Cl)cc1 (stereo not given)	1.43 µM and 1.57 µM	2.85 µM and 2.97 µM
CCOC(=O)CCCn1c(SC)nc2[nH]cc(-c3ccccc3)c2c1=O	6.81 µM	44.8 µM
CNC(=O)N(C)N=NCCCl	–	> 100 µM
CCOc1ccccc1C=C1c2ccccc2C(=O)c2ccccc21	–	18 µM
O=C(CCn1[nH]c(=O)c(Cl)c(Cl)c1=O)NO	–	> 100 µM
CCN1CCN(C(c2ccc(C(F)(F)F)cc2)c2ccc3cccnc3c2O)CC1 (stereo not given)	2.34 µM	7.5 µM
CC(C)=CC/C=C(/C)[C@H]1CC[C@]2(C)[C@@H]1CC[C@@H]1[C@@]3(C)CCCNC(C)(C)[C@@H]3CC[C@]12C	2.38 µM	6.29 µM
COc1ccc(C(C)=O)cc1N1C(=O)C2C(C1=O)C1(c3ccccc3)C(=O)C2(c2ccccc2)C(c2ccc(C)cc2)=C1c1ccc(C)cc1 (stereo not given)	> 100 µM	> 100 µM
CN(C)c1nc2ccccc2[nH]1	–	> 100 µM
NNC(=S)N/N=C(\CC1OC(=O)c2ccccc21)c1ccccc1O (stereo not given)	–	> 100 µM

Compound	GI50	TGI
COC(=O)C1=C(O)c2cc(OC)c(OC)cc2C(c2ccc(OC)c(OC)c2)C1 (stereo not given)	–	> 100 µM
COC1(OC)CC2C(=O)N(Cc3ccccc3)C1C(S(=O)(=O)c1ccccc1)C2S(=O)(=O)c1ccccc1 (stereo not given)	–	30.7 µM
NC(=Nc1c([N+](=O)[O-])cnc2ccccc12)N1CCOCC1	–	> 100 µM
CCN(CC)c1ccc2c(c1)OC(N)=C(C#N)C2c1cc(OC)c2c(c1)OCO2 (stereo not given)	0.0438 µM	3.16 µM
N#CC(=C1C=CC(=NO)C=C1)c1ccccc1	1.69 µM	9.91 µM
CCCCCCCCCCCCCC1=NC(C)(C)CN1C(C)C	1.72 µM	3.13 µM
COC(=O)C(=Cc1cc(OC)ccc1OC)C(=O)OC	–	53.5 µM
CC(C)c1ccccc1NC(=O)CCc1n[nH]c(=S)o1	–	> 100 µM
CC(C)=CCNc1ncnc2c1ncn2C1OC(CO)C(O)C1O (stereo not given)	1.37 µM	11.4 µM
CCCCC(C(=O)C(=O)NC1C2CC3CC(C2)CC1C3)C(=O)C(C)C (stereo not given)	–	> 100 µM
COc1ccc(CN2C(=O)/C(=C\C(=O)c3ccc(OCCN4CCCCC4)cc3)c3ccccc32)cc1	1.66 µM	3.11 µM
COC(=O)c1cc2c(s1)C(=O)c1ccccc1-2	–	> 100 µM
CCC(C)n1ncn(-c2ccc(N3CCN(c4ccc(OCC5COC(Cn6cncn6)(c6ccc(Cl)cc6Cl)O5)cc4)CC3)cc2)c1=O (stereo not given)	0.559 µM	32.7 µM
CC(C)CCN1c2nc(Nc3cc(F)c(O)c(F)c3)ncc2N(C)C(=O)C1C (stereo not given)	7.09 µM	52.9 µM
NC(=O)NC1C(c2ccccc2)=C1c1ccccc1	–	73.8 µM

Test system: SF-268 CNS
Experiment: growth of human tumour cells (NCI), 48 h

Compound	GI50	TGI
Cn1nc(N)c2cc([C@@H]3Nc4ccc5[nH]ncc5c4[C@H]4C5CCC(C5)[C@@H]34)ccc21 (stereo not given in full)	1.32 µM	41 µM
Cn1cc(CO)c2c1C(=O)C=C(N1CC1)C2=O	< 0.0154 µM	2.35 µM
O=C(O)C1C2C=CC(O2)C1C(=O)NCc1ccccn1 (stereo not given)	–	> 100 µM
CC1=C(C(=O)Nc2ccccc2)C(c2ccccc2)C(C(=O)Nc2ccccc2)=C(C)N1	–	> 100 µM
O=C(OC(CNc1cc(=O)n(Cc2ccccc2)c(=O)n1Cc1ccccc1)CN1CCCC1)c1ccccc1 (stereo not given)	> 100 µM	> 100 µM
Cc1nn(-c2ccccc2)c2nc(N3CCOCC3)nnc12	–	> 100 µM
CCN(CC)CCCC(CNc1ccnc2cc(Cl)ccc12)c1ccc(Cl)cc1 (stereo not given)	1.56 µM and 1.71 µM	3.31 µM and 4.55 µM
CCOC(=O)CCCn1c(SC)nc2[nH]cc(-c3ccccc3)c2c1=O	20.8 µM	87.8 µM
CNC(=O)N(C)N=NCCCl	–	> 100 µM
CCOc1ccccc1C=C1c2ccccc2C(=O)c2ccccc21	–	> 100 µM
O=C(CCn1[nH]c(=O)c(Cl)c(Cl)c1=O)NO	–	> 100 µM
CCN1CCN(C(c2ccc(C(F)(F)F)cc2)c2ccc3cccnc3c2O)CC1 (stereo not given)	1.36 µM	12.8 µM
CC(C)=CC/C=C(/C)[C@H]1CC[C@]2(C)[C@@H]1CC[C@@H]1[C@@]3(C)CCCNC(C)(C)[C@@H]3CC[C@]12C	3.82 µM	16.7 µM
COc1ccc(C(C)=O)cc1N1C(=O)C2C(C1=O)C1(c3ccccc3)C(=O)C2(c2ccccc2)C(c2ccc(C)cc2)=C1c1ccc(C)cc1 (stereo not given)	> 100 µM	> 100 µM
CN(C)c1nc2ccccc2[nH]1	–	> 100 µM
NNC(=S)N/N=C(\CC1OC(=O)c2ccccc21)c1ccccc1O (stereo not given)	–	> 100 µM

Compound	GI50	TGI
COC(=O)C1=C(O)c2cc(OC)c(OC)cc2C(c2ccc(OC)c(OC)c2)C1 (stereo not given)	–	> 100 µM
COC1(OC)CC2C(=O)N(Cc3ccccc3)C1C(S(=O)(=O)c1ccccc1)C2S(=O)(=O)c1ccccc1 (stereo not given)	–	29.3 µM
NC(=Nc1c([N+](=O)[O-])cnc2ccccc12)N1CCOCC1	–	> 100 µM
CCN(CC)c1ccc2c(c1)OC(N)=C(C#N)C2c1cc(OC)c2c(c1)OCO2 (stereo not given)	0.06 µM	3.03 µM
N#CC(=C1C=CC(=NO)C=C1)c1ccccc1	1.37 µM	6.06 µM
CCCCCCCCCCCCCC1=NC(C)(C)CN1C(C)C	1.76 µM	3.14 µM
COC(=O)C(=Cc1cc(OC)ccc1OC)C(=O)OC	–	> 100 µM
CC(C)c1ccccc1NC(=O)CCc1n[nH]c(=S)o1	–	> 100 µM
CC(C)=CCNc1ncnc2c1ncn2C1OC(CO)C(O)C1O (stereo not given)	2 µM	> 432 µM
CCCCC(C(=O)C(=O)NC1C2CC3CC(C2)CC1C3)C(=O)C(C)C (stereo not given)	–	> 100 µM
COc1ccc(CN2C(=O)/C(=C\C(=O)c3ccc(OCCN4CCCCC4)cc3)c3ccccc32)cc1	4.03 µM	19.5 µM
COC(=O)c1cc2c(s1)C(=O)c1ccccc1-2	–	> 100 µM
CCC(C)n1ncn(-c2ccc(N3CCN(c4ccc(OCC5COC(Cn6cncn6)(c6ccc(Cl)cc6Cl)O5)cc4)CC3)cc2)c1=O (stereo not given)	33.6 µM	> 100 µM
CC(C)CCN1c2nc(Nc3cc(F)c(O)c(F)c3)ncc2N(C)C(=O)C1C (stereo not given)	5.81 µM	56.8 µM
NC(=O)NC1C(c2ccccc2)=C1c1ccccc1	–	32 µM
